Results published in the NIST ThermoML archive (doi:10.1021/acs.jced.7b00445).
± gives the expanded uncertainty stated by the source.

Tests used:
[1] = 298.15 K; 101.33 kPa; Liquid; Pycnometric method
[2] = Boiling temperature at pressure P; conditions: 101.3 kPa; Liquid; Ebulliometric method (Recirculating still)
[3] = refractive index (Na D-line) (dimensionless); conditions: 298.15 K; 101.33 kPa; Liquid; Standard Abbe refractometry

mass density [1] [kg/m3] | Boiling temperature at pressure P [2] [°C] | refractive index [3] | Compound
867 ± 2 | 111.97 ± 0.16 | 1.3872 ± 0.0004 | CCC(C)OC(C)=O (configuration not stated) [1-methylpropyl ethanoate]
786 ± 2 | 78.27 ± 0.16 | 1.3596 ± 0.0004 | CCO [ethanol]
782 ± 2 | 82.36 ± 0.16 | 1.3757 ± 0.0004 | CC(C)O [propan-2-ol]
802 ± 2 | 97.17 ± 0.16 | 1.3842 ± 0.0004 | CCCO [propan-1-ol]
